Source: PubChem BioAssay (NCI)
Several values for one entry are separate records, joined by “and”; a condition that tells them apart may be missing. Equal values may be shown once.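 Assay format: 96-well plates, 48-hour exposure. Here, GI50 denotes the concentration required for 50% inhibition of growth. TGI denotes the concentration required for complete inhibition of growth.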

Experiments:
Assay in all cases: NCI anticancer screen, dose series, 48 h
SW-620 colon = tested on: SW-620 colon
SN12C renal = tested on: SN12C renal
RXF 393 renal = tested on: RXF 393 renal
RPMI-8226 leukemia = tested on: RPMI-8226 leukemia
CAKI-1 renal = tested on: CAKI-1 renal
HCT-15 colon = tested on: HCT-15 colon
UACC-62 melanoma = tested on: UACC-62 melanoma
HCC-2998 colon = tested on: HCC-2998 colon
HS 578T breast = tested on: HS 578T breast
K-562 leukemia = tested on: K-562 leukemia

SMILES	GI50 (SW-620 colon)	TGI (SW-620 colon) [µM]	TGI (SN12C renal) [µM]	GI50 (RXF 393 renal)	TGI (RXF 393 renal)	TGI (RPMI-8226 leukemia)	TGI (CAKI-1 renal) [µM]	GI50 (HCT-15 colon)	TGI (HCT-15 colon) [µM]	TGI (UACC-62 melanoma)	TGI (HCC-2998 colon) [µM]	TGI (HS 578T breast) [µM]	GI50 (K-562 leukemia)	TGI (K-562 leukemia)	GI50 (SN12C renal)	GI50 (RPMI-8226 leukemia)	GI50 (CAKI-1 renal)	GI50 (UACC-62 melanoma)	GI50 (HCC-2998 colon)	GI50 (HS 578T breast)
O=C1OC(c2ccccc2)=N/C1=C\c1ccccc1	> 100 µM and 35.5 µM	> 100	> 100	> 100 µM and 43 µM	> 100 µM	> 100 µM and 56.8 µM	> 100	> 100 µM and 49 µM	> 100	> 100 µM	> 100	> 100	> 100 µM and 19.8 µM	> 100 µM and 46.3 µM						
COc1cc(C(=O)/C=C/c2c[nH]c3ccccc23)cc(OC)c1OC	< 0.0123 µM	> 100	18.9	0.0238 µM	34.7 µM	2.82 µM	29.8	< 0.0187 µM	19.4	15.7 µM	7.59	30.4	< 0.01 µM	12.5 µM	0.0631 µM	0.0319 µM	< 0.0193 µM	< 0.01 µM	0.0959 µM	0.0208 µM
CSc1ccc(-c2cn3ccsc3n2)cc1	14.6 µM	> 100	> 100	5.19 µM	> 92 µM	> 100 µM	> 100	9.76 µM	> 100	> 100 µM	> 100	> 65.7	4.85 µM	> 100 µM	32.2 µM	9.2 µM	24.9 µM	25.7 µM	20.9 µM	9.5 µM
COc1oc(C2C/C(=C/C(C)=C/C(C)=C/C(C)=C/c3ccc([N+](=O)[O-])cc3)CO2)c(C)c(=O)c1C (stereo not drawn)		> 100	27		95.1 µM	20.9 µM	30.9		> 56.6	> 54.8 µM	> 100	> 31.6		21.3 µM						
O=C(NOCCO)c1ccc2cncn2c1Nc1ccc(I)cc1F	0.00386 µM and < 0.01 µM	> 100	> 100	0.188 µM and 0.303 µM	> 10 µM and 21.4 µM	> 100 µM	> 100	> 2.24 µM and 1.72 µM	> 100	0.0343 µM and 0.0433 µM		> 100	0.359 µM and 0.219 µM	> 100 µM	> 10 µM and 19.8 µM	> 10 µM and 24.6 µM	0.111 µM and 0.292 µM	0.00255 µM and < 0.01 µM	0.00299 µM and < 0.01 µM	> 10 µM and 60.6 µM
CNC(=O)c1sc(-n2cnc3cc(OC)c(OC)cc32)cc1OCc1ccccc1C(F)(F)F	> 25 µM	> 25	> 25	> 25 µM	> 25 µM	> 25 µM	> 25	> 25 µM	> 25	> 25 µM	> 25	> 25	> 25 µM	> 25 µM	> 25 µM	> 25 µM	> 25 µM	> 22.6 µM	> 25 µM	> 25 µM
COc1cc(/C=N\Nc2ccccc2)ccc1OC(=O)c1ccccc1	0.736 µM	19.9	> 100	23.2 µM	74.6 µM	> 55.9 µM	33.7	0.306 µM	17.6	4.47 µM	17.1	> 100	0.369 µM	11.8 µM	11 µM	3.79 µM	2.27 µM	0.311 µM	3.83 µM	18 µM
Nc1nc(SCC#CCCl)c2[nH]cnc2n1	4.1 µM	17.5	18	3.05 µM	14.9 µM	48.8 µM	10.6	3.52 µM	17.7	18.1 µM	18.9	56.6	4.5 µM	40.5 µM	4.75 µM	6.86 µM	2.83 µM	5.46 µM	5.85 µM	3.89 µM
Cc1cnc(C(=O)Nc2nc3ccc(S(=O)(=O)Nc4ccc(C(C)(C)C)cc4)cc3[nH]2)cn1	0.422 µM	13.9	13.3	0.312 µM	1.86 µM	12.4 µM	16.4	0.304 µM	3.09	13 µM	10.7	10.6	0.314 µM	5.71 µM	0.592 µM	0.47 µM	0.544 µM	0.537 µM	1.46 µM	0.422 µM
CN1CCN(Cc2ccc(NC(=O)c3cncc(C#Cc4c(N)ncc5ccccc45)c3)cc2C(F)(F)F)CC1	0.185 µM	0.72	1.31	0.708 µM	1.39 µM	2.36 µM	1.44	0.293 µM	0.998	1.55 µM	1.26	1.86	0.005 µM	0.715 µM	0.627 µM	0.835 µM	0.765 µM	0.791 µM	0.619 µM	0.64 µM
COC(=O)c1sc(-n2cnc3cc(OC)c(OC)cc32)cc1OCc1ccccc1C(F)(F)F	> 25 µM	> 25	> 25	7.45 µM	> 25 µM	> 25 µM	> 25	> 25 µM	> 25	> 25 µM	> 25	> 25	> 25 µM	> 25 µM	> 25 µM	> 25 µM	> 25 µM	> 25 µM	> 25 µM	6.2 µM
CC1CCc2c(C(=O)Nc3ncc(Cc4cccc([N+](=O)[O-])c4)s3)csc2C1 (stereo not drawn)	0.414 µM	> 100	> 100	0.938 µM	4.02 µM	> 100 µM	> 100	0.389 µM	> 100	> 100 µM	> 100	> 26.2	0.213 µM	> 100 µM	1.49 µM	1.14 µM	0.431 µM	0.373 µM	1.51 µM	0.72 µM
